Numbered stars: 1 amine (or outer) side, 2 acyl side, 3 side chain; on linkers, the order of the positions; unused ones are H or OH. Bridge positions count the residues as written; N and C are the ends. Square brackets hold non-standard residues; d marks the D form. Peptide text beside a SMILES is read from it. dαMeOrn(Me) = CN(CCC[C@@](C)(N[*:1])C(=O)[*:2])[*:3]; dαMeDab(Me) = CN(CC[C@@](C)(N[*:1])C(=O)[*:2])[*:3]; dαMeDap(Me) = CN(C[C@@](C)(N[*:1])C(=O)[*:2])[*:3]; αMeDab(Me) = CN(CC[C@](C)(N[*:1])C(=O)[*:2])[*:3]; X12 = CN(CC=[*:3])CCC[C@@](C)(N[*:1])C(=O)[*:2]; X11 = CN(CC=[*:3])C[C@](C)(N[*:1])C(=O)[*:2]; X6 = CN(CC=[*:3])CC[C@](C)(N[*:1])C(=O)[*:2]; X13 = C[C@@](CCCCC=[*:3])(N[*:1])C(=O)[*:2]; X5 = C[C@](CCCCCC=[*:3])(N[*:1])C(=O)[*:2]; X7 = C[C@](CCCCC=[*:3])(N[*:1])C(=O)[*:2]; X2 = O=C(OCC=CCOC(=O)[*:2])[*:1]; S5 = C=CCCC[C@](C)(N)C(=O)O

The target of this assay is T1, full-length beta-catenin (Axin site) (Homo sapiens, UniProt P35222).
T1 construct: 15 nM full-length beta-catenin, 20 nM FITC labeled peptide in buffer
T1 sequence (P35222 1-781): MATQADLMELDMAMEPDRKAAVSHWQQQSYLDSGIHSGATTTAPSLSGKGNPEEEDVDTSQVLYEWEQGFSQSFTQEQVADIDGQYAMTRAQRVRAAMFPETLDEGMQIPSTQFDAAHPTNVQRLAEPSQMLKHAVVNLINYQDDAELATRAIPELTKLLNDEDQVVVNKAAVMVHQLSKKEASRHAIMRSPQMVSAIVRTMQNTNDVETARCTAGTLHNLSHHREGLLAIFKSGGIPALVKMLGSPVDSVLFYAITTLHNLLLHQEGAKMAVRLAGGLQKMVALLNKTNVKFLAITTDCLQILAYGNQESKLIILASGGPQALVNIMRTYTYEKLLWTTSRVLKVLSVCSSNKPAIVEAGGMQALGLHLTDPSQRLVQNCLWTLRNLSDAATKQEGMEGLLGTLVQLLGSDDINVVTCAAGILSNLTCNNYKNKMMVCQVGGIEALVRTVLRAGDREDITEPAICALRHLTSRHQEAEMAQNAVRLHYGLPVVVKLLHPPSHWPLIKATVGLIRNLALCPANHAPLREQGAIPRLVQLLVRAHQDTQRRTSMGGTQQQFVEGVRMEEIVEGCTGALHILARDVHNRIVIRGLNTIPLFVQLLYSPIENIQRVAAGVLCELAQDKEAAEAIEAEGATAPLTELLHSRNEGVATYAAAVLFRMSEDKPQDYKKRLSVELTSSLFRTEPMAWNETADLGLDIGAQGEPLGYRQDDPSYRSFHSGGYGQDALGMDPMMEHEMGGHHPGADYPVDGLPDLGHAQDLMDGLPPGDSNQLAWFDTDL
The assay is described as follows: Competition fluorescence polarization assay (Axin site probe). Conditions: competition fluorescence polarization, Table 2; read-out: in vitro FP EC50. The class given is binding. An outline of the steps:
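Competition FP: 15 nM full-length β-catenin pre-incubated 5 min with 20 nM FITC-labelled stapled Axin-site peptide, then titrated peptide added (3-fold series from 5 μM) for 15 min in the dark. Buffer 50 mM Tris pH 8.0, 250 mM NaCl, 2% glycerol, 0.5 mM EDTA; duplicate reads.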
A general note: In fluorescence polarisation assays a small probe gives low polarisation when free and higher when bound to something large.
As a reminder, the EC50 is the midpoint of the concentration-response curve. With `CC[C@H](C)[C@@H]1NC(=O)[C@H](Cc2c[nH]cn2)NC(=O)[C@H](C)NC(=O)[C@H](CC(=O)O)NC(=O)[C@H](CC(C)C)NC(=O)[C@H]([C@@H](C)CC)NC(=O)[C@](C)(NC(=O)[C@H](C)NC(C)=O)CCCCCC=CCN(C)C[C@@](C)(C(=O)N[C@@H](CCCNC(=N)N)C(=O)N[C@H](C(=O)N[C@@H](Cc2c[nH]c3ccccc23)C(N)=O)C(C)C)NC1=O` [FP0495a, Ac-A-R7-I-L-D-A-H-I-MD-R-V-W-NH2] (Ac-A[X5]ILDAHI[X11]RVW-NH2; staple 2-9), the EC50 is 500 to 5000 nM. Regarding `CC[C@H](C)[C@@H]1NC(=O)[C@H](Cc2c[nH]cn2)NC(=O)[C@H](C)NC(=O)[C@H](CC(=O)O)NC(=O)[C@H](CC(C)C)NC(=O)[C@H]([C@@H](C)CC)NC(=O)[C@](C)(NC(=O)[C@H](C)NC(C)=O)CCCCCC=CCOC(=O)N(C)C[C@@](C)(C(=O)N[C@@H](CCCNC(=N)N)C(=O)N[C@H](C(=O)N[C@@H](Cc2c[nH]c3ccccc23)C(N)=O)C(C)C)NC1=O` [FP0495c, Ac-A-R7-I-L-D-A-H-I-MD-R-V-W-NH2], the EC50 was in the range of 100 to 500 nM. `CC[C@H](C)[C@@H]1NC(=O)[C@H](Cc2c[nH]cn2)NC(=O)[C@H](C)NC(=O)[C@H](CC(=O)O)NC(=O)[C@H](CC(C)C)NC(=O)[C@H]([C@@H](C)CC)NC(=O)[C@](C)(NC(=O)[C@H](C)NC(C)=O)CCCC=CCOC(=O)N(C)CC[C@@](C)(C(=O)N[C@@H](CCCNC(=N)N)C(=O)N[C@H](C(=O)N[C@@H](Cc2c[nH]c3ccccc23)C(N)=O)C(C)C)NC1=O` [FP0501c, Ac-A-R5-I-L-D-A-H-I-MF-R-V-W-NH2]: the EC50 lay in the range of 100 to 500 nM.

For the compound `CC[C@H](C)[C@@H]1NC(=O)[C@H](Cc2c[nH]cn2)NC(=O)[C@H](C)NC(=O)[C@H](CC(=O)O)NC(=O)[C@H](CC(C)C)NC(=O)[C@H]([C@@H](C)CC)NC(=O)[C@](C)(NC(=O)[C@H](C)NC(C)=O)CCCCC=CCN(C)CC[C@@](C)(C(=O)N[C@@H](CCCNC(=N)N)C(=O)N[C@H](C(=O)N[C@@H](Cc2c[nH]c3ccccc23)C(N)=O)C(C)C)NC1=O` [FP0502a, Ac-A-R6-I-L-D-A-H-I-MF-R-V-W-NH2] (Ac-A[X7]ILDAHI[X6]RVW-NH2; staple 2-9), the EC50 was 500 to 5000 nM.

In the case of `CC[C@H](C)[C@@H]1NC(=O)[C@H](Cc2c[nH]cn2)NC(=O)[C@H](C)NC(=O)[C@H](CC(=O)O)NC(=O)[C@H](CC(C)C)NC(=O)[C@H]([C@@H](C)CC)NC(=O)[C@](C)(NC(=O)[C@H](C)NC(C)=O)CCCN(C)CC=CCCC[C@@](C)(C(=O)N[C@@H](CCCNC(=N)N)C(=O)N[C@H](C(=O)N[C@@H](Cc2c[nH]c3ccccc23)C(N)=O)C(C)C)NC1=O` [FP0506a, Ac-A-MI-I-L-D-A-H-I-S5-R-V-W-NH2] (Ac-A[X12]ILDAHI[S5]RVW-NH2; staple 2-9), the EC50 lay within 500 to 5000 nM. For `CC[C@H](C)[C@@H]1NC(=O)[C@H](Cc2c[nH]cn2)NC(=O)[C@H](C)NC(=O)[C@H](CC(=O)O)NC(=O)[C@H](CC(C)C)NC(=O)[C@H]([C@@H](C)CC)NC(=O)[C@](C)(NC(=O)[C@H](C)NC(C)=O)CCCN(C)CC=CCCCC[C@@](C)(C(=O)N[C@@H](CCCNC(=N)N)C(=O)N[C@H](C(=O)N[C@@H](Cc2c[nH]c3ccccc23)C(N)=O)C(C)C)NC1=O` [FP0507a, Ac-A-MI-I-L-D-A-H-I-S6-R-V-W-NH2] (Ac-A[X12]ILDAHI[X13]RVW-NH2; staple 2-9), the EC50 was less than 100 nM. Turning to `CC[C@H](C)[C@@H]1NC(=O)[C@H](Cc2c[nH]cn2)NC(=O)[C@H](C)NC(=O)[C@H](CC(=O)O)NC(=O)[C@H](CC(C)C)NC(=O)[C@H]([C@@H](C)CC)NC(=O)[C@](C)(NC(=O)[C@H](C)NC(C)=O)CCCN(C)C(=O)OCC=CCCCC[C@@](C)(C(=O)N[C@@H](CCCNC(=N)N)C(=O)N[C@H](C(=O)N[C@@H](Cc2c[nH]c3ccccc23)C(N)=O)C(C)C)NC1=O` [FP0507c, Ac-A-MI-I-L-D-A-H-I-S6-R-V-W-NH2], the EC50 fell in the range of 500 to 5000 nM.

With `CC[C@H](C)[C@@H]1NC(=O)[C@H](Cc2c[nH]cn2)NC(=O)[C@H](C)NC(=O)[C@H](CC(=O)O)NC(=O)[C@H](CC(C)C)NC(=O)[C@H]([C@@H](C)CC)NC(=O)[C@](C)(NC(=O)[C@H](C)NC(C)=O)CCCCCC=CCOC(=O)N2CC(C(=O)N[C@@H](CCCNC(=N)N)C(=O)N[C@H](C(=O)N[C@@H](Cc3c[nH]c4ccccc34)C(N)=O)C(C)C)(C2)NC1=O` [FP0516c, Ac-A-R7-I-L-D-A-H-I-MA-R-V-W-NH2], the EC50 fell in the range of 100 to 500 nM. As to `CC[C@H](C)[C@@H]1NC(=O)[C@H](Cc2cccs2)NC(=O)[C@H](C)NC(=O)[C@H](CC(=O)O)NC(=O)[C@H](CC(C)C)NC(=O)[C@H]([C@@H](C)CC)NC(=O)[C@](C)(NC(=O)[C@H](C)NC(C)=O)CCCCCCC=CCOC(=O)N2CC[C@@](C(=O)N[C@@H](CCCNC(=N)N)C(=O)N[C@H](C(=O)N[C@@H](Cc3c[nH]c4ccccc34)C(N)=O)C(C)C)(C2)NC1=O` [FP0536c, Ac-A-R8-I-L-D-A-thi-I-MB-R-V-W-NH2], the EC50 is greater than 5000 nM. Then `CC[C@H](C)[C@@H]1NC(=O)[C@H](Cc2cccnc2)NC(=O)[C@H](C)NC(=O)[C@H](CC(=O)O)NC(=O)[C@H](CC(C)C)NC(=O)[C@H]([C@@H](C)CC)NC(=O)[C@](C)(NC(=O)[C@H](C)NC(C)=O)CCCCCCC=CCOC(=O)N2CC[C@@](C(=O)N[C@@H](CCCNC(=N)N)C(=O)N[C@H](C(=O)N[C@@H](Cc3c[nH]c4ccccc34)C(N)=O)C(C)C)(C2)NC1=O` [FP0537c, Ac-A-R8-I-L-D-A-3pyr-I-MB-R-V-W-NH2], with greater than 5000 nM. Then `CC[C@H](C)[C@@H]1NC(=O)[C@H](Cc2ccncc2)NC(=O)[C@H](C)NC(=O)[C@H](CC(=O)O)NC(=O)[C@H](CC(C)C)NC(=O)[C@H]([C@@H](C)CC)NC(=O)[C@](C)(NC(=O)[C@H](C)NC(C)=O)CCCCCCC=CCOC(=O)N2CC[C@@](C(=O)N[C@@H](CCCNC(=N)N)C(=O)N[C@H](C(=O)N[C@@H](Cc3c[nH]c4ccccc34)C(N)=O)C(C)C)(C2)NC1=O` [FP0538c, Ac-A-R8-I-L-D-A-4pyr-I-MB-R-V-W-NH2], with 500 to 5000 nM; and `CC[C@H](C)[C@@H]1NC(=O)[C@H](Cc2ccccc2)NC(=O)[C@H](C)NC(=O)[C@H](CC(=O)O)NC(=O)[C@H](CC(C)C)NC(=O)[C@H]([C@@H](C)CC)NC(=O)[C@](C)(NC(=O)[C@H](C)NC(C)=O)CCCCCCC=CCOC(=O)N2CC[C@@](C(=O)N[C@@H](CCCNC(=N)N)C(=O)N[C@H](C(=O)N[C@@H](Cc3c[nH]c4ccccc34)C(N)=O)C(C)C)(C2)NC1=O` [FP0540c, Ac-A-R8-I-L-D-A-F-I-MB-R-V-W-NH2], with greater than 5000 nM; and `CC[C@H](C)[C@@H]1NC(=O)[C@H](Cc2ccco2)NC(=O)[C@H](C)NC(=O)[C@H](CC(=O)O)NC(=O)[C@H](CC(C)C)NC(=O)[C@H]([C@@H](C)CC)NC(=O)[C@](C)(NC(=O)[C@H](C)NC(C)=O)CCCCCCC=CCOC(=O)N2CC[C@@](C(=O)N[C@@H](CCCNC(=N)N)C(=O)N[C@H](C(=O)N[C@@H](Cc3c[nH]c4ccccc34)C(N)=O)C(C)C)(C2)NC1=O` [FP0541c, Ac-A-R8-I-L-D-A-fur-I-MB-R-V-W-NH2], with greater than 5000 nM.

With `CC[C@H](C)[C@@H]1NC(=O)[C@H](Cc2c[nH]cn2)NC(=O)[C@H](C)NC(=O)[C@H](CC(=O)O)NC(=O)[C@H](CC(C)C)NC(=O)[C@H]([C@@H](C)CC)NC(=O)[C@](C)(NC(=O)[C@H](C)NC(C)=O)CCCCCCC=CCOC(=O)N2CC[C@@](C(=O)N[C@@H](CO)C(=O)N[C@H](C(=O)N[C@@H](Cc3c[nH]c4ccccc34)C(N)=O)C(C)C)(C2)NC1=O` [FP0542c, Ac-A-R8-I-L-D-A-H-I-MB-S-V-W-NH2], the EC50 was in the range of 500 to 5000 nM. Consider `CC[C@H](C)[C@@H]1NC(=O)[C@H](Cc2c[nH]cn2)NC(=O)[C@H](C)NC(=O)[C@H](CC(=O)O)NC(=O)[C@H](CC(C)C)NC(=O)[C@H]([C@@H](C)CC)NC(=O)[C@](C)(NC(=O)[C@H](C)NC(C)=O)CCCN(C)C(=O)OCC=CCOC(=O)N(C)CC[C@@](C)(C(=O)N[C@@H](CCCNC(=N)N)C(=O)N[C@H](C(=O)N[C@@H](Cc2c[nH]c3ccccc23)C(N)=O)C(C)C)NC1=O` [FP0587c, Ac-A-MI-I-L-D-A-H-I-MF-R-V-W-NH2] (Ac-A[dαMeOrn(Me)]ILDAHI[αMeDab(Me)]RVW-NH2; linker 2-9 via X2), for which the EC50 is less than 100 nM.

As for `CC[C@H](C)[C@@H]1NC(=O)[C@H](Cc2c[nH]cn2)NC(=O)[C@H](C)NC(=O)[C@H](CC(=O)O)NC(=O)[C@H](CC(C)C)NC(=O)[C@H]([C@@H](C)CC)NC(=O)[C@](C)(NC(=O)[C@H](C)NC(C)=O)CCN(C)C(=O)OCC=CCOC(=O)N(C)C[C@](C)(C(=O)N[C@@H](CCCNC(=N)N)C(=O)N[C@H](C(=O)N[C@@H](Cc2c[nH]c3ccccc23)C(N)=O)C(C)C)NC1=O` [FP0596c, Ac-A-MG-I-L-D-A-H-I-ME-R-V-W-NH2] (Ac-A[dαMeDab(Me)]ILDAHI[dαMeDap(Me)]RVW-NH2; linker 2-9 via X2), the EC50 lay in the range of 500 to 5000 nM.

The values above are taken from US11198713B2, “Agents modulating beta-catenin functions and methods thereof” (FOG PHARMACEUTICALS, INC., priority 2017, dated 2021).
